Target: T1, GST-tagged KRAS-G12D (2-169) (Homo sapiens, UniProt P01116, G12D)
T1 construct: GST-tagged KRAS-G12D (2-169, Reaction Biology, MSC-11-539); purchased Reaction Biology MSC-11-539 (KRAS G12D); MSC-11-502 (SOS1cat)
Assay: Nucleotide exchange assay (NEA), SOS-mediated, HTRF, KRAS G12D
Format: biochemical
Settings: Table 4; IC50 extracted at 30 min
In short: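 GST-KRAS-G12D (2-169, 5 nM final) with Tb-anti-GST donor was preincubated with compound 1 h at RT (pH 7.3 HEPES buffer, MgCl2, DTT), then SOScat (564-1049, 20 nM) and GTP-DY-647P1 (150 nM) were added. HTRF was read at RT; % inhibition vs DMSO/no-SOS blank, 4-parameter IC50 taken at 30 min.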

T1 sequence (P01116 2-169 isoform P01116-2 G12D): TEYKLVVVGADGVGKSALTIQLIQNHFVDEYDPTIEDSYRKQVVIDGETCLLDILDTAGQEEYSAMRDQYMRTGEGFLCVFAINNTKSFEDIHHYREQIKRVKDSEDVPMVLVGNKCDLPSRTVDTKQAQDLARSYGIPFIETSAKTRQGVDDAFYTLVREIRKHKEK

| Structure (SMILES) | IC50 [nM] |
| --- | --- |
| N#Cc1c(N)sc2c1C1(CC2)CN(c2nc(OC[C@@]34CCCN3C[C@H](F)C4)nc(N3C[C@H]4CC[C@@H](C3)N4)c2F)C1 [Compound 15, 2-amino-1′-[6-(3,8-diazabicyclo[3.2.1]octan-3-yl)-5-fluoro-2-[[(2R,8S)-2-fluoro-1,2,3,5,6,7-hexahydropyrrolizin-8-yl]methoxy]pyrimidin-4-yl]spiro[5,6-dihydrocyclopenta[b]thiophene-4,3′-azetidine]-3-carbonitrile] | < 10 |
| Cc1noc(-c2cc3n(n2)CCCN(c2nc(OC[C@@]45CCCN4C[C@H](F)C5)nc(N4CC5(CCc6sc(N)c(C#N)c65)C4)c2C#N)C3)n1 [Compound 16, 2-amino-1′-[5-cyano-6-[2-(3-methyl-1,2,4-oxadiazol-5-yl)-4,6,7,8-tetrahydropyrazolo[1,5-a][1,4]diazepin-5-yl]-2-[[(2R,8S)-2-fluoro-1,2,3,5,6,7-hexahydropyrrolizin-8-yl]methoxy]pyrimidin-4-yl]spiro[5,6-dihydrocyclopenta[b]thiophene-4,3′-azetidine]-3-carbonitrile] | < 10 |
| Cc1noc(-c2nn3c(c2Cl)CN(c2nc(OC[C@@]45CCCN4C[C@H](F)C5)nc(N4CC5(CCc6sc(N)c(C#N)c65)C4)c2C#N)CCC3)n1 [Compound 17, 2-amino-1′-[6-[3-chloro-2-(3-methyl-1,2,4-oxadiazol-5-yl)-4,6,7,8-tetrahydropyrazolo[1,5-a][1,4]diazepin-5-yl]-5-cyano-2-[[(2R,8S)-2-fluoro-1,2,3,5,6,7-hexahydropyrrolizin-8-yl]methoxy]pyrimidin-4-yl]spiro[5,6-dihydrocyclopenta[b]thiophene-4,3′-azetidine]-3-carbonitrile] | < 10 |
| CN(C)C(=O)c1nn2c(c1Cl)CN(c1nc(OCC34CCCN3CCC4)nc(N3CC4(CCc5sc(N)c(C#N)c54)C3)c1C#N)CCC2 [Compound 18, 5-[6-(2-amino-3-cyano-spiro[5,6-dihydrocyclopenta[b]thiophene-4,3′-azetidine]-1′-yl)-5-cyano-2-(1,2,3,5,6,7-hexahydropyrrolizin-8-ylmethoxy)pyrimidin-4-yl]-3-chloro-N,N-dimethyl-4,6,7,8-tetrahydropyrazolo[1,5-a][1,4]diazepine-2-carboxamide] | < 10 |
| N#Cc1c(N2CCCCCC2)nc(OC[C@@]23CCCN2C[C@H](F)C3)nc1N1CC2(CCc3sc(N)c(C#N)c32)C1 [Compound 19, 2-amino-1′-[6-(azepan-1-yl)-5-cyano-2-[[(2R)-2-fluoro-1,2,3,5,6,7-hexahydropyrrolizin-8-yl]methoxy]pyrimidin-4-yl]spiro[5,6-dihydrocyclopenta[b]thiophene-4,3′-azetidine]-3-carbonitrile] | 10 to 100 |
| CS(=O)(=O)c1cc2n(n1)CCCN(c1nc(OC[C@@]34CCCN3C[C@H](F)C4)nc(N3CC4(CCc5sc(N)c(C#N)c54)C3)c1C#N)C2 [Compound 21, 2-amino-1′-[5-cyano-2-[[(2R,8S)-2-fluoro-1,2,3,5,6,7-hexahydropyrrolizin-8-yl]methoxy]-6-(2-methylsulfonyl-4,6,7,8-tetrahydropyrazolo[1,5-a][1,4]diazepin-5-yl)pyrimidin-4-yl]spiro[5,6-dihydrocyclopenta[b]thiophene-4,3′-azetidine]-3-carbonitrile] | < 10 |
| N#Cc1c(N)sc2c1C1(CC2)CN(c2nc(OCC3(CN4CCOCC4)CC3)nc(N3C[C@H]4CC[C@@H](C3)N4)c2F)C1 [Compound 22, 2-amino-1′-[6-(3,8-diazabicyclo[3.2.1]octan-3-yl)-5-fluoro-2-[[1-(morpholinomethyl)cyclopropyl]methoxy]pyrimidin-4-yl]spiro[5,6-dihydrocyclopenta[b]thiophene-4,3′-azetidine]-3-carbonitrile] | < 10 |
| N#Cc1c(N2C[C@H]3CC[C@@H](C2)N3)nc(OCC2(CN3CCOCC3)CC2)nc1N1CC2(CCc3sc(N)nc32)C1 [Compound 23, 4-(2-aminospiro[5,6-dihydrocyclopenta[d]thiazole-4,3′-azetidine]-1′-yl)-2-[[1-(morpholinomethyl)cyclopropyl]methoxy]-6-[(1R,5S)-3,8-diazabicyclo[3.2.1]octan-3-yl]pyrimidine-5-carbonitrile] | < 10 |
| N#Cc1cc2n(n1)CCCN(c1nc(OC[C@@]34CCCN3C[C@H](F)C4)nc(N3CC4(CCc5sc(N)c(C#N)c54)C3)c1C#N)C2 [Compound 24, 2-amino-1′-[5-cyano-6-(2-cyano-4,6,7,8-tetrahydropyrazolo[1,5-a][1,4]diazepin-5-yl)-2-[[(2R,8S)-2-fluoro-1,2,3,5,6,7-hexahydropyrrolizin-8-yl]methoxy]pyrimidin-4-yl]spiro[5,6-dihydrocyclopenta[b]thiophene-4,3′-azetidine]-3-carbonitrile] | 10 to 100 |
| N#Cc1c(N2C[C@H]3CC[C@@H](C2)N3)nc(OC[C@@]23CCCN2C[C@H](F)C3)nc1N1CC2(CCc3sc(N)c(C#N)c32)C1 [Compound 25, 2-amino-1′-[5-cyano-6-(3,8-diazabicyclo[3.2.1]octan-3-yl)-2-[[(2R,8S)-2-fluoro-1,2,3,5,6,7-hexahydropyrrolizin-8-yl]methoxy]pyrimidin-4-yl]spiro[5,6-dihydrocyclopenta[b]thiophene-4,3′-azetidine]-3-carbonitrile] | < 10 |
| CN(C)CC(F)(F)COc1nc(N2C[C@H]3CC[C@@H](C2)N3)c(C#N)c(N2CC3(CCc4sc(N)c(C#N)c43)C2)n1 [Compound 26, 2-amino-1′-[5-cyano-6-(3,8-diazabicyclo[3.2.1]octan-3-yl)-2-[3-(dimethylamino)-2,2-difluoro-propoxy]pyrimidin-4-yl]spiro[5,6-dihydrocyclopenta[b]thiophene-4,3′-azetidine]-3-carbonitrile] | < 10 |
| C[C@@]1(O)CCCN(c2nc(OC[C@@]34CCCN3C[C@H](F)C4)nc(N3CC4(CCc5sc(N)c(C#N)c54)C3)c2C#N)C1 [Compound 27, 2-amino-1′-[5-cyano-2-[[(2R,8S)-2-fluoro-1,2,3,5,6,7-hexahydropyrrolizin-8-yl]methoxy]-6-[(3R)-3-hydroxy-3-methyl-1-piperidyl]pyrimidin-4-yl]spiro[5,6-dihydrocyclopenta[b]thiophene-4,3′-azetidine]-3-carbonitrile] | 10 to 100 |
| Cn1c(-c2cc3n(n2)CCCN(c2nc(OC[C@@]45CCCN4C[C@H](F)C5)nc(N4CC5(CCc6sc(N)c(C#N)c65)C4)c2C#N)C3)nc2ccccc21 [Compound 29, 2-amino-1′-[5-cyano-6-[2-(1-methylbenzimidazol-2-yl)-4,6,7,8-tetrahydropyrazolo[1,5-a][1,4]diazepin-5-yl]-2-[[(2R,8S)-2-fluoro-1,2,3,5,6,7-hexahydropyrrolizin-8-yl]methoxy]pyrimidin-4-yl]spiro[5,6-dihydrocyclopenta[b]thiophene-4,3′-azetidine]-3-carbonitrile] | 10 to 100 |
| Cn1c(-c2nn3c(c2Cl)CN(c2nc(OC[C@@]45CCCN4C[C@H](F)C5)nc(N4CC5(CCc6sc(N)c(C#N)c65)C4)c2C#N)CCC3)nc2ccccc21 [Compound 30] | < 10 |
| Cn1c(-c2nn3c(c2Cl)CN(c2nc(OC[C@@]45CCCN4C[C@H](F)C5)nc(N4CC5(CCc6sc(N)c(C#N)c65)C4)c2C#N)CCC3)nc2c(F)cccc21 [Compound 32, 2-amino-1′-[6-[3-chloro-2-(4-fluoro-1-methyl-benzimidazol-2-yl)-4,6,7,8-tetrahydropyrazolo[1,5-a][1,4]diazepin-5-yl]-5-cyano-2-[[(2R,8S)-2-fluoro-1,2,3,5,6,7-hexahydropyrrolizin-8-yl]methoxy]pyrimidin-4-yl]spiro[5,6-dihydrocyclopenta[b]thiophene-4,3′-azetidine]-3-carbonitrile] | < 10 |
| N#Cc1c(N2CCCC(C#N)CC2)nc(OC[C@@]23CCCN2C[C@H](F)C3)nc1N1CC2(CCc3sc(N)c(C#N)c32)C1 (stereo partly drawn) [Compound 33, 2-amino-1′-[5-cyano-6-(4-cyanoazepan-1-yl)-2-[[(2R,8S)-2-fluoro-1,2,3,5,6,7-hexahydropyrrolizin-8-yl]methoxy]pyrimidin-4-yl]spiro[5,6-dihydrocyclopenta[b]thiophene-4,3′-azetidine]-3-carbonitrile] | 10 to 100 |
| N#Cc1c(N2C[C@H]3CC[C@@H](C2)N3)nc(OCC2(CN3CCC(F)(F)CC3)CC2)nc1N1CC2(CCc3sc(N)c(C#N)c32)C1 [Compound 34, 2-amino-1′-[5-cyano-6-(3,8-diazabicyclo[3.2.1]octan-3-yl)-2-[[1-[(4,4-difluoro-1-piperidyl)methyl]cyclopropyl]methoxy]pyrimidin-4-yl]spiro[5,6-dihydrocyclopenta[b]thiophene-4,3′-azetidine]-3-carbonitrile] | < 10 |
| N#Cc1c(N2CCCC(O)CC2)nc(OC[C@@]23CCCN2C[C@H](F)C3)nc1N1CC2(CCc3sc(N)c(C#N)c32)C1 (stereo partly drawn) [Compound 40, 2-amino-1′-[5-cyano-6-(4-hydroxyazepan-1-yl)-2-[[(2R,8S)-2-fluoro-1,2,3,5,6,7-hexahydropyrrolizin-8-yl]methoxy]pyrimidin-4-yl]spiro[5,6-dihydrocyclopenta[b]thiophene-4,3′-azetidine]-3-carbonitrile] | 10 to 100 |
| N#Cc1c(N2C[C@H]3CC[C@@H](C2)N3)nc(OCC2(CN3CCOCC3)CC2)nc1N1CC2(CCCc3sc(N)c(C#N)c32)C1 [Compound 41, 2-amino-1′-[5-cyano-2-[[1-(morpholinomethyl)cyclopropyl]methoxy]-6-[(1R,5S)-3,8-diazabicyclo[3.2.1]octan-3-yl]pyrimidin-4-yl]spiro[6,7-dihydro-5H-benzothiophene-4,3′-azetidine]-3-carbonitrile] | < 10 |

Reference: patent US12145947B2, “Pyrimidine based modulators and uses thereof” (Quanta Therapeutics, Inc., priority 2022, dated 2024)
